Assay results: US4332820A, “Substituted benzonitriles having antiviral activity” (The Dow Chemical Company, priority 1980, dated 1982)
≈ marks a conversion by molar mass, not a printed value.

Columns and labels:
[1] = test system: Coxsackie A21 virus (Cox A21); test: Tissue culture antiviral testing, Cox A21 (cytopathic effect, HeLa cells); format: cell-based; conditions: for EC50: HeLa cells, NA = not active at the standard test conditions, read-out: Lowest concentration of the compound necessary to cause a 50 percent reduction in cytopathic effect
Coxsackie A21 virus = test: Continuous Oral Feeding test in mice challenged with Coxsackie A21; format: in vivo; conditions: for X^2 (Continuous Oral Feeding, chi-square of deaths): 0.06 % in diet, 240 h, 0.06 % strength
Cox A21 = test: Single Oral Dose test in mice challenged with Cox A21; format: in vivo, Swiss male mice; conditions: po, 600 mg/kg, 3 h
rhinovirus type 2 (RV-2) = test: Tissue culture antiviral testing, RV-2 (cytopathic effect, HeLa cells); format: cell-based; conditions: for EC50: Enterovirus, HeLa cells, NA = not active at the standard test conditions, read-out: Lowest concentration of the compound necessary to cause a 50 percent reduction in cytopathic effect
[2] = Cytotoxicity in tissue culture (HeLa monolayers); format: cell-based; conditions: human; HeLa cells; observed at 48 and 72 hours post-treatment; read-out: Cytotoxicity (concentration of the compound found to be toxic to the cell)
rhinovirus type 5 (RV-5) = test: Tissue culture antiviral testing, RV-5 (cytopathic effect, HeLa cells); format: cell-based; conditions: for EC50: Enterovirus, HeLa cells, read-out: Lowest concentration of the compound necessary to cause a 50 percent reduction in cytopathic effect
[3] = test system: rhinovirus type 1A (RV-1A); test: Tissue culture antiviral testing, RV-1A (cytopathic effect, HeLa cells); format: cell-based; conditions: for EC50: Enterovirus, HeLa cells, NA = not active at the standard test conditions, read-out: Lowest concentration of the compound necessary to cause a 50 percent reduction in cytopathic effect
[4] = test system: rhinovirus type 64 (RV-64); test: Tissue culture antiviral testing, RV-64 (cytopathic effect, HeLa cells); format: cell-based; conditions: for EC50: Enterovirus, HeLa cells, NA = not active at the standard test conditions, read-out: Lowest concentration of the compound necessary to cause a 50 percent reduction in cytopathic effect
rhinovirus type 8 (RV-8) = test: Tissue culture antiviral testing, RV-8 (cytopathic effect, HeLa cells); format: cell-based; conditions: for EC50: Enterovirus, HeLa cells, read-out: Lowest concentration of the compound necessary to cause a 50 percent reduction in cytopathic effect

| EC50 [1] [mg/L] | EC50 (rhinovirus type 2 (RV-2)) [mg/L] | EC50 (rhinovirus type 5 (RV-5)) [mg/L] | EC50 [3] [mg/L] | EC50 [4] [mg/L] | EC50 (rhinovirus type 8 (RV-8)) [mg/L] | SMILES | X^2 (Continuous Oral Feeding, chi-square of deaths) (Coxsackie A21 virus) | MCC [2] [µg/mL] | further results |
| --- | --- | --- | --- | --- | --- | --- | --- | --- | --- |
| < 6.25 | 12.5 (≈ 39.3 µM) |  |  |  |  | CS(=O)(=O)c1ccc(Oc2ccc([N+](=O)[O-])cc2C#N)cc1 [Example 8, 2-(4-(Methylsulfonyl)phenoxy)-5-nitrobenzonitrile] | 10.45 | > 100 | X^2 (Single Oral Dose, chi-square of deaths vs virus control) (Cox A21): 0.095 |
| 5 (≈ 14.6 µM) | 1.25 (≈ 3.64 µM) | 3.12 (≈ 9.1 µM) | 2.5 (≈ 7.28 µM) | 3.12 (≈ 9.1 µM) | < 3.12 | N#Cc1cc([N+](=O)[O-])ccc1Oc1c(Cl)ccc(Cl)c1Cl [Example 31, 2-(2,3,6-Trichlorophenoxy)-5-nitrobenzonitrile] |  | > 20 |  |
| 6.25 (≈ 20.2 µM) | < 3.12 | ≤ 6.25 | 3.12 (≈ 10.1 µM) | 3.12 (≈ 10.1 µM) | < 6.25 | N#Cc1cc([N+](=O)[O-])ccc1Oc1cc(Cl)ccc1Cl [Example 23, 2-(2,5-Dichlorophenoxy)-5-nitrobenzonitrile] |  | > 50 |  |
| 6.25 (≈ 18.9 µM) | ≤ 3.12 | 1.25 (≈ 3.79 µM) | 6.25 (≈ 18.9 µM) | 0.312 (≈ 0.946 µM) | 1.25 (≈ 3.79 µM) | N#Cc1cc([N+](=O)[O-])ccc1Oc1c(F)c(F)c(F)c(F)c1F [Example 19, 2-(2,3,4,5,6-Pentafluorophenoxy)-5-nitrobenzonitrile] |  | 12.5 |  |
| 10 (≈ 32.4 µM) | 1.25 (≈ 4.06 µM) |  |  |  |  | N#Cc1cc([N+](=O)[O-])ccc1Oc1ccccc1C(F)(F)F [Example 26, 2-((2-Trifluoromethyl)phenoxy)-5-nitrobenzonitrile] |  | ≥ 20 |  |
| 0.625 (≈ 2.03 µM) | 0.312 (≈ 1.01 µM) | 2.5 (≈ 8.11 µM) | 3.12 (≈ 10.1 µM) | 0.625 (≈ 2.03 µM) | 0.312 (≈ 1.01 µM) | N#Cc1cc([N+](=O)[O-])ccc1Oc1ccc(C(F)(F)F)cc1 [Example 14, 2-((4-Trifluoromethyl)phenoxy)-5-nitrobenzonitrile] |  | ≥ 50 |  |
| 12.5 (≈ 43.3 µM) | 3.12 (≈ 10.8 µM) | 6.25 (≈ 21.6 µM) | 12.5 (≈ 43.3 µM) |  | 3.12 (≈ 10.8 µM) | Cc1cc(Cl)ccc1Oc1ccc([N+](=O)[O-])cc1C#N [Example 16, 2-(4-Chloro-2-methylphenoxy)-5-nitrobenzonitrile] |  | > 50 |  |
| 0.625 (≈ 2.42 µM) | < 0.625 | 1.25 (≈ 4.84 µM) | 0.625 (≈ 2.42 µM) | 0.625 (≈ 2.42 µM) | 0.625 (≈ 2.42 µM) | N#Cc1cc([N+](=O)[O-])ccc1Oc1ccc(F)cc1 [Example 21, 2-(4-Fluorophenoxy)-5-nitrobenzonitrile] | 10.513 | 10 |  |
| 2.5 (≈ 7.83 µM) | 1.25 (≈ 3.92 µM) |  | 1.25 (≈ 3.92 µM) |  |  | N#Cc1cc([N+](=O)[O-])ccc1Oc1ccc(Br)cc1 [Example 3, 2-(4-Bromophenoxy)-5-nitrobenzonitrile] | 5.81 | > 100 | X^2 (Single Oral Dose, chi-square of deaths vs virus control) (Cox A21): 2.139 |
|  | 3.12 (≈ 10.1 µM) | 6.25 (≈ 20.2 µM) | 6.25 (≈ 20.2 µM) | 25 (≈ 80.9 µM) | 3.12 (≈ 10.1 µM) | N#Cc1cc([N+](=O)[O-])ccc1Oc1cc(Cl)cc(Cl)c1 [Example 25, 2-(3,5-Dichlorophenoxy)-5-nitrobenzonitrile] |  | > 50 |  |
|  |  |  |  |  |  | N#Cc1cc(Oc2ccc(Cl)c(Cl)c2)ccc1[N+](=O)[O-] [5-(3,4-dichlorophenoxy)-2-nitrobenzonitrile, reference compound] |  |  | concentration required to produce a 50% reduction in cytopathic effect, compared with 2-(3,4-dichlorophenoxy)-5-nitrobenzonitrile ([1]; in words): higher concentrations; antiviral activity in the "Continuous Oral Feeding" test (Coxsackie A21 virus; in words, 95% confidence level): failed to exhibit antiviral activity; antiviral activity at the test concentrations employed (rhinovirus type 5 (RV-5); in words): not active; concentration required to produce a 50% reduction in cytopathic effect, compared with 2-(3,4-dichlorophenoxy)-5-nitrobenzonitrile (rhinovirus type 2 (RV-2); in words): higher concentrations; concentration required to produce a 50% reduction in cytopathic effect, compared with 2-(3,4-dichlorophenoxy)-5-nitrobenzonitrile ([3]; in words): higher concentrations; antiviral activity at the test concentrations employed ([4]; in words): not active; antiviral activity at the test concentrations employed (rhinovirus type 8 (RV-8); in words): not active |
| 1.6 (≈ 5.5 µM) | ≤ 1.6 |  | ~3.12 (≈ 10.7 µM) |  |  | N#Cc1cc([N+](=O)[O-])ccc1Sc1ccc(Cl)cc1 [Example 12, 2-((4-Chlorophenyl)thio)-5-nitrobenzonitrile] | 0.215 | 25 | X^2 (Single Oral Dose, chi-square of deaths vs virus control) (Cox A21): 4.805 |
| 3.12 (≈ 10 µM) | < 3.12 | 1.25 (≈ 4 µM) | 3.12 (≈ 10 µM) | 0.312 (≈ 1 µM) | 1.25 (≈ 4 µM) | N#Cc1cc([N+](=O)[O-])ccc1Oc1c(F)c(F)cc(F)c1F [Example 18, 2-(2,3,5,6-Tetrafluorophenoxy)-5-nitrobenzonitrile] |  | 12.5 |  |
| 10 (≈ 26.6 µM) | 2.5 (≈ 6.65 µM) |  |  |  |  | N#Cc1cc([N+](=O)[O-])ccc1Oc1cc(C(F)(F)F)cc(C(F)(F)F)c1 [Example 28, 2-(3,5-bis(Trifluoromethyl)phenoxy)-5-nitrobenzonitrile] |  | ≥ 20 |  |
| < 6.25 | ≤ 6.25 |  |  |  |  | CSc1ccc(Oc2ccc([N+](=O)[O-])cc2C#N)cc1 [Example 6, 2-(4-(Methylthio)phenoxy)-5-nitrobenzonitrile] | 6.91 | 100 | X^2 (Single Oral Dose, chi-square of deaths vs virus control) (Cox A21): 0.609 |
| 1.25 (≈ 4.06 µM) | 0.625 (≈ 2.03 µM) | 0.625 (≈ 2.03 µM) | 2.5 (≈ 8.11 µM) | 0.625 (≈ 2.03 µM) | 1.25 (≈ 4.06 µM) | N#Cc1cc([N+](=O)[O-])ccc1Oc1cccc(C(F)(F)F)c1 [Example 27, 2-((3-Trifluoromethyl)phenoxy)-5-nitrobenzonitrile] |  | 12.5 |  |
| < 6.25 |  |  |  |  |  | CN(C)S(=O)(=O)c1ccc(Oc2ccc([N+](=O)[O-])cc2C#N)cc1 [Example 9, N,N-Dimethyl-4-(2-cyano-4-nitrophenoxy)benzenesulfonamide] | 9.03 | > 100 |  |
| 12.5 (≈ 36.3 µM) | ~100 (≈ 290 µM) |  |  |  |  | N#Cc1cc([N+](=O)[O-])ccc1Oc1ccc(C(=O)c2ccccc2)cc1 [Example 11, 2-(4-Benzoylphenoxy)-5-nitrobenzonitrile] |  | > 100 | X^2 (Single Oral Dose, chi-square of deaths vs virus control) (Cox A21): 0.64 |
| < 3.12 | 3.12 (≈ 11.1 µM) | 6.25 (≈ 22.1 µM) | 6.25 (≈ 22.1 µM) | 6.25 (≈ 22.1 µM) | 3.12 (≈ 11.1 µM) | CC(=O)c1ccc(Oc2ccc([N+](=O)[O-])cc2C#N)cc1 [Example 15, 2-(4-Acetylphenoxy)-5-nitrobenzonitrile] |  | > 50 |  |
| < 6.25 | 6.25 (≈ 20.7 µM) |  |  |  |  | C[S+]([O-])c1ccc(Oc2ccc([N+](=O)[O-])cc2C#N)cc1 (centres unmarked) [Example 7, 2-(4-(Methylsulfinyl)phenoxy)-5-nitrobenzonitrile] | 18.82 | 50 | X^2 (Single Oral Dose, chi-square of deaths vs virus control) (Cox A21): 18.94 |
| < 6.25 |  |  | ~50 (≈ 133 µM) |  |  | CCN(CC)S(=O)(=O)c1ccc(Oc2ccc([N+](=O)[O-])cc2C#N)cc1 [Example 10, N,N-Diethyl-4-(2-cyano-4-nitrophenoxy)benzenesulfonamide] | 2.84 | > 100 |  |
| 12.5 (≈ 40.4 µM) | ≤ 3.12 | 3.12 (≈ 10.1 µM) | 3.12 (≈ 10.1 µM) | 3.12 (≈ 10.1 µM) | ≤ 3.12 | N#Cc1cc([N+](=O)[O-])ccc1Oc1c(Cl)cccc1Cl [Example 24, 2-(2,6-Dichlorophenoxy)-5-nitrobenzonitrile] |  | > 50 |  |
| ~2.5 (≈ 7.69 µM) | 2.5 (≈ 7.69 µM) |  |  |  |  | N#Cc1cc([N+](=O)[O-])ccc1Sc1ccc(Cl)c(Cl)c1 [Example 20, 2-((3,4-Dichlorophenyl)thio)-5-nitrobenzonitrile] |  | 10 |  |
|  | 2.5 (≈ 7.28 µM) |  | 2.5 (≈ 7.28 µM) |  |  | N#Cc1cc([N+](=O)[O-])ccc1Oc1cc(Cl)cc(Cl)c1Cl [Example 30, 2-(2,3,5-Trichlorophenoxy)-5-nitrobenzonitrile] |  | > 20 |  |
| < 6.25 | 50 (≈ 150 µM) |  |  |  |  | N#Cc1cc([N+](=O)[O-])ccc1Oc1ccc(Oc2ccccc2)cc1 [Example 5, 2-(4-Phenoxyphenoxy)-5-nitrobenzonitrile] | 0.26 | > 100 | X^2 (Single Oral Dose, chi-square of deaths vs virus control) (Cox A21): 0.719 |
| 1.25 (≈ 3.64 µM) | 1.25 (≈ 3.64 µM) |  | 2.5 (≈ 7.28 µM) |  |  | N#Cc1cc([N+](=O)[O-])ccc1Oc1cc(Cl)c(Cl)c(Cl)c1 [Example 17, 2-(3,4,5-Trichlorophenoxy)-5-nitrobenzonitrile] |  | 10 |  |
| < 3.12 | ≤ 3.12 | 6.25 (≈ 23.1 µM) | 6.25 (≈ 23.1 µM) | 12.5 (≈ 46.3 µM) | 3.12 (≈ 11.6 µM) | COc1cccc(Oc2ccc([N+](=O)[O-])cc2C#N)c1 [Example 13, 2-(3-Methoxyphenoxy)-5-nitrobenzonitrile] |  | > 50 |  |
| < 3.12 | < 3.12 |  | < 3.12 | < 3.12 |  | N#Cc1cc([N+](=O)[O-])ccc1Oc1cccc(Cl)c1Cl [Example 22, 2-(2,3-Dichlorophenoxy)-5-nitrobenzonitrile] |  | > 50 |  |
| ~5 (≈ 14.6 µM) | 1.25 (≈ 3.64 µM) |  | ~10 (≈ 29.1 µM) |  |  | N#Cc1cc([N+](=O)[O-])ccc1Oc1ccc(Cl)c(Cl)c1Cl [Example 29, 2-(2,3,4-Trichlorophenoxy)-5-nitrobenzonitrile] |  | > 20 |  |
